Laboratory results reported in US20030229007A1, “Form of human renin and its use as a target in treatments for cardiac ischemia and arrhythmia” (priority 2002, published 2003).
Counter-ions that a name gives are not always drawn. Square brackets hold non-standard residues; d marks the D form. Peptide text beside a SMILES is read from it. * marks the point of attachment. Sta = CC(C)C[C@H](N)[C@@H](O)CC(=O)O; Isovaleryl = CC(C)CC(=O)*

How the values were obtained:
[1] = tested on: human right atrial tissue; assay: NE release from human right atrium incubated in ischemic conditions; type: cell-based; conditions: 70 min ischemia
Excerpt: Source of human cardiac tissue. Specimens of right atrium (i.e., surgical waste tissue) were obtained from 34 patients undergoing cardiopulmonary bypass [29 males and 5 females, age 64.9±1.6 years; coronary artery bypass grafting (CABG) 30, valve replacement 4], following a protocol approved by the Institutional Review Board. Eight of the 30 CABG patients were chronically treated with β-adrenoceptor blocking agents. […] All patients chronically treated with ACE inhibitors were excluded from the study. At the time of surgery, a piece of atrial appendage measuring ˜1 cm^3 was removed from the atriotomy site.
Incubation of atrial tissue. Atrial specimens were immediately transported to the laboratory in ice-cold oxygenated Krebs-Henseleit solution (KHS) of the following composition (mM): NaCl 118.2, KCl 4.83, CaCl2 2.5, MgSO4 2.37, KH2PO4 1.0, NaHCO3 25, and glucose 11.1. After removal of fat and connective tissue, specimens were divided into several fragments (each weighing 24.5±1.1 mg, wet weight, measured at the end of incubation). Each fragment was incubated for 15 min at 37° C. in 2 ml of KHS gassed with 95% O2 and 5% CO2 (Po2 ˜550 mm Hg, pH ˜7.4) containing the monoamine oxidase inhibitor pargyline (1 mM). Following the 15-min stabilization period, fragments were incubated for an additional 20 min in oxygenated KHS in the absence or presence of pharmacological agents. […]

[2] = tested on: human cardiac synaptosomes (sympathetic nerve endings); assay: Ischemic NE release from synaptosomes isolated from human right atrium; type: cell-based; conditions: 70 min ischemia
Protocol: (§1) Preparation of cardiac synaptosomes. Atrial specimens were freed from fat and connective tissue and minced in ice-cold 0.32 M sucrose containing 1 mM EGTA, pH 7.4, and 1 mM pargyline, to prevent enzymatic destruction of synaptosomal NE. Synaptosomes were isolated as previously described (Imamura et al., Circ. Res. 1995, 77:206-210). Briefly, minced tissue was digested with 120 mg collagenase (Type II, Worthington Biochemicals, Freehold, N.J.) per gm wet heart weight for 1 hr at 37° C. After low speed centrifugation (10 min at 120 g), the resulting pellet was suspended in 10 vol of 0.32 M sucrose and homogenized with a Teflon/glass homogenizer. The homogenate was spun at 650 g for 10 min and the pellet rehomogenized and respun. The pellet containing cellular debris was discarded, and the supernatants from the last two spins were combined and equally subdivided into 4 to 8 tubes and recentrifuged for 20 min at 20,000 g at 4° C. This pellet, which contained cardiac synaptosomes, was resuspended either in HEPES-buffered saline (HBS; 500 μl, normoxic conditions) or in glucose-free HBS which contained the reducing agent sodium dithionite (500 μl, ischemic conditions), and incubated in the absence or presence of angiotensinogen (for 1 hour) or other pharmacological agents for 20 min in a water bath at 37° C. prior to ischemia (see below). HBS contained 50 mM HEPES, pH 7.4, 144 mM NaCl, 5 mM KCl, 1.2 mM CaCl2, 1.2 mM MgCl2, 10 mM glucose. Each suspension functioned as an independent sample and was used only once. In every experiment, one sample was untreated (control, basal NE release).
Induction of ischemia. Ischemia was induced by incubating either atrial fragments or synaptosomes for 70 min in glucose-free KHS (atrial tissue) or HBS (synaptosomes) bubbled with 95% N2 and 5% CO2, containing the reducing agent sodium dithionite (3 mM; PO2 ˜0 mm Hg, pH ˜7.3; ischemic NE release) (Hatta et al. J. Pharmacol Exp. Ther. 1997, 283:494-500). Matched control fragments and synaptosomes were incubated for an equivalent length of time with oxygenated KHS and HBS, respectively (normoxic NE release). When drugs were used, they were continued throughout the entire normoxic and ischemic periods.
Norepinephrine assay. Incubating media were assayed for NE by high pressure liquid chromatography with electrochemical detection (Hatta et al. J. Pharmacol Exp. Ther. 1997, 283:494-500). Perchloric acid and EDTA were added to samples to achieve final concentrations of 0.01 N and 0.025%, respectively. The NE present in the effluent was adsorbed on acid-washed alumina adjusted at pH 8.6 with Tris-2% EDTA buffer, and then extracted into 150 μl of 0.1 N perchloric acid. These final sample aliquots were injected onto a 3 μm ODS reverse-phase column (3.2×100 mm, Bioanalytical System, West Lafayette, Ind.) with an applied potential of 0.65 V. The mobile phase consisted of monochloroacetic acid (75 mM), sodium EDTA (0.5 mM), sodium octylsulfate (0.5 mM) and acetonitrile (1.5%) at pH 3.0. The flow rate was 1.0 ml/min. No NE breakdown occurred during the 70-min ischemic period. Dihydroxybenzylamine was added to each sample as an internal standard prior to alumina extraction and used for calculation of the recovery during the extraction procedure. This recovery was 77% or better. The detection limit was approximately 0.2 pmol.

[3] = tested on: human cardiac synaptosomes (sympathetic nerve endings); assay: Ischemic NE release from human cardiac synaptosomes incubated with angiotensinogen; type: cell-based; conditions: for effect on angiotensinogen-induced increase in ischemic NE release: angiotensinogen 400 nM
Protocol: as §1
Induction of ischemia. Ischemia was induced by incubating either atrial fragments or synaptosomes for 70 min in glucose-free KHS (atrial tissue) or HBS (synaptosomes) bubbled with 95% N2 and 5% CO2, containing the reducing agent sodium dithionite (3 mM; PO2 ˜0 mm Hg, pH ˜7.3; ischemic NE release) (Hatta et al. J. Pharmacol Exp. Ther. 1997, 283:494-500). […]

[4] = tested on: human right atrial tissue; conditions: as previously reported (Hatta et al. 1997); cited from earlier work

CC(C)CC(=O)N[C@H](C(=O)N[C@H](C(=O)N[C@@H](CC(C)C)[C@@H](O)CC(=O)N[C@@H](C)C(=O)N[C@@H](CC(C)C)[C@@H](O)CC(=O)O)C(C)C)C(C)C [pepstatin-A] (Isovaleryl-VV[Sta]A[Sta]-OH)
decrease in NE release ([1]; 30 μM): ~70%
suppression of the enhancement in NE release elicited by ischemia ([2]; 30 μM): ~70%

CC(C)C[C@H](O)[C@H](O)[C@H](CC1CCCCC1)NC(=O)[C@@H](CC(=O)N(CC(=O)N(C)CCc1ccccn1)CC1CCCCC1)Cc1csc(N)n1 [BILA 2157BS]
decrease in NE release ([1]; 30 nM): ~60%
suppression of the enhancement in NE release elicited by ischemia ([2]; 100 nM): ~70%
effect on angiotensinogen-induced increase in ischemic NE release ([3]; 100 nM): prevented

CCN(c1nc(N)c(C(=O)N=C(N)N)nc1Cl)C(C)C [EIPA, 5-(N-ethyl-N-isopropyl)-amiloride]
inhibition of ischemic NE release ([2]; 30 μM): ~50%

CNCCCN1c2ccccc2CCc2ccccc21 [DMI, desipramine hydrochloride]
inhibition at 0.3 µM ([2]; Homo sapiens, 70 min, 300 nM): ~50%
effect on ischemic NE release from atrial tissue [4]: inhibited

C[C@H](N[C@@H](CCc1ccccc1)C(=O)O)C(=O)N1CCC[C@H]1C(=O)O [enalaprilat, Enalaprilat]
reduction of the increase in NE release caused by ischemia ([2]; 3 μM): ~80%
effect on angiotensinogen-induced increase in ischemic NE release ([3]; 3 μM): prevented

B1: angiotensinogen: Human plasma angiotensinogen, renin substrate, purchased from Sigma-Aldrich (protein, UniProt P01019 25-476, looked up)
Angiotensinogen: DRVYIHPFHLVIHNESTCEQLAKANAGKPKDPTFIPAPIQAKTSPVDEKALQDQLVLVAAKLDTEDKLRAAMVGMLANFLGFRIYGMHSELWGVVHGATVLSPTAVFGTLASLYLGALDHTADRLQAILGVPWKDKNCTSRLDAHKVLSALQAVQGLLVAQGRADSQAQLLLSTVVGVFTAPGLHLKQPFVQGLALYTPVVLPRSLDFTELDVAAEKIDRFMQAVTGWKTGCSLMGASVDSTLAFNTYVHFQGKMKGFSLLAEPQEFWVDNSTSVSVPMLSGMGTFQHWSDIQDNFSVTQVPFTESACLLLIQPHYASDLDKVEGLTFQQNSLNWMKKLSPRTIHLTMPQLVLQGSYDLQDLLAQAELPAILHTELNLQKLSNDRIRVGEVLNSIFFELEADEREPTESTQQLNKPEVLEVTLNRPFLFAVYDQSATALHFLGRVANPLSTA
increase in ischemic NE release ([3]; 400 nM angiotensinogen, 70 min ischemia): ~70%
